For 4 compounds, Activity and EC50 results are on record in ChEMBL document CHEMBL1131562, “Synthesis of L-enantiomers of 4'-thioarabinofuranosyl pyrimidine nucleosides” (1998).

Test [1] concerns Human alphaherpesvirus 2. Description: Antiviral activity against herpes simplex virus type-2 at concentration up to 100 ug/mL; NA means not active. Type of test: functional, organism-based.
The next test is filed under the species Homo sapiens. The test is described as follows: Cytotoxicity against human T-cell leukemia, CCRF-HSB-2, at concentration up to 100 ug/mL; NA means not active. It counts as functional.
Test [2] relates to Human alphaherpesvirus 1. The test is described as follows: Antiviral activity against herpes simplex virus type-1 at concentration up to 100 ug/mL; NA means not active. Type of test: functional, organism-based.
Test [3] relates to Human alphaherpesvirus 2. Description: Effective dose required for antiviral activity against herpes simplex virus type-2. Type of test: functional. The settings on record: read-out: ED50 (the source's name).
Test [4] concerns Human alphaherpesvirus 1. The test is described as follows: Effective dose required for antiviral activity against herpes simplex virus type-1. It counts as functional. The settings on record: read-out: ED50 (the source's name).

In brackets after ≈: the same amount, converted by molar mass. Activity calls are given as the source filed them. No cut-off for these calls is given here.

As to `Cc1cn([C@@H]2S[C@@H](CO)[C@H](O)[C@H]2O)c(=O)[nH]c1=O`, the result in the test with Human alphaherpesvirus 2 [1], in the test listed under Homo sapiens and in the test with Human alphaherpesvirus 1 [2] was inactive.
For the compound `Nc1ccn([C@H]2S[C@@H](CO)[C@H](O)[C@H]2O)c(=O)n1`, the result with Human alphaherpesvirus 2 [1], in the test filed under Homo sapiens and with Human alphaherpesvirus 1 [2] was inactive.
On to `Cc1cn([C@H]2S[C@@H](CO)[C@H](O)[C@H]2O)c(=O)[nH]c1=O`, for which the result with Human alphaherpesvirus 2 [1], in the test listed under Homo sapiens and in the test on Human alphaherpesvirus 1 [2] was inactive.
With `Nc1ccn([C@@H]2S[C@@H](CO)[C@H](O)[C@H]2O)c(=O)n1`, the EC50 with Human alphaherpesvirus 2 [3] and in the test on Human alphaherpesvirus 1 [4] was 10 mg/L (≈ 38.6 µM) each time. The outcome in the test listed under Homo sapiens was inactive.
